Patent US20210205382A1, “METHODS AND COMPOSITIONS FOR USING METAL ELEMENTS IN AAV GENE THERAPY” (priority 2018, published 2021)

Assays:
[1] = tested on: HeLa cells infected with scAAV2-EGFP; assay: Transduction efficiency of scAAV2-EGFP in HeLa cells (EGFP expression, fluorescent microscopy); conditions: for concentration giving maximal increase in transgene expression / maximal increase in transgene expression compared to when no essential metal element was added: HeLa, scAAV2-EGFP, 200 vgs per cell, 48 hours after infection; for maximal increase in transgene expression compared to when no essential metal element was added: at the concentration of maximal increase; for target blood concentration determined from the concentration of greatest improvement of AAV transduction efficiency in vitro: based on FIGS. 1H, 1F, 1C, 1I; for improvement of AAV transduction efficiency: cells infected with rAAV, metal alone or in combination (FIG. 2B)
Experimental: In an initial set of experiments, HeLa cells were infected with self-complementary AAV2 (scAAV2) comprising nucleic acid encoding EGFP (scAAV2-EGFP) at a multiplicity of infection of 200 viral genomes (vgs) per cell. Thereafter, various essential metal elements were added to the cell cultures at different concentrations. Transduction efficiency was measured 48 hours after infection, by evaluating the expression of EGFP using fluorescent microscopy. Images were analyzed using ImageJ software.

HeLa cells = assay: Zn2+-induced cytotoxicity in HeLa cells; type: cell-based
[2] = tested on: Huh7 cells infected with scAAV3-EGFP; assay: Percentage of Huh7 cells transduced by scAAV3-EGFP (flow cytometry); type: cell-based, human; conditions: different concentrations, flow cytometry (FIG. 4)
Experimental: Huh7 cells were infected with self-complementary AAV3 (scAAV3) comprising nucleic acid encoding EGFP (scAAV3-EGFP). Thereafter, zinc chloride was added to the cell cultures at different concentrations. Transduction efficiency was measured by evaluating the expression of EGFP using flow cytometry.

CCK8 cells = assay: AAV2-mCherry transduction efficiency versus cell viability with varying zinc; type: cell-based; conditions: varying concentrations of zinc (FIG. 5)
Source text: FIG. 5 provides an overlap of AAV transduction efficiency data and cell viability data from experiments in which CCK8 cells were transduced with AAV2 comprising mCherry encoding nucleic acid and treated with varying concentrations of zinc. […] FIGS. 6, 7, and 8 show similar data for HEK293 cells, HeLa cells, and HepG2 cells.

[3] = tested on: ZIP14 over-expressing Huh7 cells; assay: Zn2+ effects in Huh7 cells over-expressing ZIP14, transduced with scAAV2-mCherry; type: cell-based, human
Source text: The effect of metal ion (e.g., zinc) on the transduction efficiency of AAV vectors may be due to free floating zinc, because the increase in transduction occurs when the cell has taken up zinc to the point where extracellular accumulation occurs. […] ZIP14 is a metal ion transporter that primarily transports zinc into cells.
(§1) Therefore, targeting ZIP14-deficient HCC tumors would be ideal for Zn2+ infusions due to their tendency to prevent zinc uptake, and therefore, increase the level of environmental Zn2+. To test this hypothesis, Huh7 cells were either mock-transfected, or transfected with a recombinant plasmid containing a CMV promoter-driven ZIP14-EGFP fusion protein, and were transduced with scAAV2-mCherry vectors under identical conditions.

Huh7 cells [4] = assay: Transgene expression of rAAV2-mCherry in Huh7 cells with zinc; type: cell-based, human; conditions: 15 μg/ml of Zn2+
Source text: as §1

HepG2 cells = assay: Factor IX expression in HepG2 cells infected with AAV3-Factor IX (Western blot); type: cell-based; conditions: rAAV3-Factor IX, 20 μg/ml, 3h post infection
Experimental: HepG2 cells, which express factor IX to a lower degree compared to other cell types, were cultured. They were then either infected with rAAV3 particles carrying nucleic acid encoding Factor IX, or infected with rAAV3 particles carrying nucleic acid encoding Factor IX and treated with 20 μg/ml of ZnCl2. When level of Factor IX expressed in the cells was measured using Western blot analysis after the cells there harvest 3h post infection.

Huh7 cells [5] = assay: Zn2+-induced cytotoxicity in Huh7 cells (mock-transfected); type: cell-based, human

`[Cl][Co][Cl]` [cobalt chloride] was tested, and the “concentration giving maximal increase in transgene expression” value (“concentration giving maximal increase” for short) [1] was 25 µg/mL, the “maximal increase in transgene expression compared to when no essential metal element was added” value [1] was roughly 2 fold and the “target blood concentration determined from the concentration of greatest improvement of AAV transduction efficiency in vitro” value (“target blood concentration determined” for short) [1] was 20 to 30 µg/mL. For the same compound, the “improvement of AAV transduction efficiency” value [1] was roughly 2 fold.

For `[Cl-].[Cl-].[Zn+2]` [zinc chloride], the “increase in transgene expression” value ([1]; HeLa cells, final concentration of 30 μg/ml) was roughly 8 fold, the “concentration giving maximal increase” value [1] was 30 µg/mL and the “maximal increase in transgene expression compared to when no essential metal element was added” value [1] was roughly 8 fold. For the same compound, the “target blood concentration determined” value [1] was 30 µg/mL, the “improvement of AAV transduction efficiency” value [1] was roughly 8 fold and the “concentration inducing significant cytotoxicity” value (HeLa cells) was “exceeding 30 μg/ml”. For the same compound, the “percentage of cells transduced by the scAAV3-EGFP vector” value [2] was “increases with increasing concentration of zinc chloride”, the “rAAV transduction efficiency versus cell viability” value (CCK8 cells) was “drop in rAAV transduction efficiency correlates with cell viability” and the “zinc-induced improvement of rAAV transduction efficiency” value ([3]; Huh7 cells transfected with a ZIP14 gene) was “reduction in the zinc-induced improvement of rAAV transduction efficiency”. The “Zn2+-induced cytotoxicity” value ([3]; ZIP14 over-expressing Huh7 cells, final concentration of 20 μg/ml) was “evaded Zn2+-induced cytotoxicity”, the “increase in the transgene expression” value (Huh7 cells [4]) was roughly 7 fold and the “level of Factor IX expression compared to cells not treated with metal elements” value (HepG2 cells) was “greater level of Factor IX expression”. For the same compound, the “concentrations found to be cytotoxic” value (Huh7 cells [5]; Huh7 cells) was “exceeding 20 μg/ml” and the “Zn2+-induced cytotoxicity” value (Huh7 cells [5]; mock-treated Huh7 cells, final concentration of 20 μg/ml) was “not mock-treated Huh7 cells, evaded Zn2+-induced cytotoxicity”.

In the case of `[Cl-].[Cl-].[Mg+2]` [magnesium chloride], the “concentration giving maximal increase” value [1] is reported as “approximately 100 μg/ml”, the “maximal increase in transgene expression compared to when no essential metal element was added” value [1] is reported as roughly 2 fold and the “target blood concentration determined” value [1] is reported as 100 µg/mL.

For `[Cl][Ni][Cl]` [nickel chloride], the “concentration giving maximal increase” value [1] was 20 µg/mL, the “maximal increase in transgene expression compared to when no essential metal element was added” value [1] was roughly 3 fold and the “target blood concentration determined” value [1] was 200 µg/mL. For the same compound, the “improvement of AAV transduction efficiency” value [1] was roughly 2 fold.
